Where two headings read alike, the source gives them in different places.
Legend:
[1] = system: lipopolysaccharide-induced injury (lungs); conditions: rats; cited from earlier work
[2] = system: Nrf2 (nuclear factor erythroid 2-related factor 2); conditions: "It has been shown" (related art); cited from earlier work
[3] = system: Nrf2 (nuclear factor erythroid 2-related factor 2); assay: Alteration of regulatory elements of oxidative stress and inflammation (Nrf2); conditions: "We and others have observed"
[4] = system: inducible nitric oxide synthase; conditions: Zhang H S, Wang S Q Biochem Pharmacol. 2007; cited from earlier work
[5] = system: lipopolysaccharide-induced injury (lungs); conditions: mice; cited from earlier work
[6] = system: heme oxygenase 1; conditions: Zhang H S, Wang S Q Biochem Pharmacol. 2007; cited from earlier work
[7] = system: primary rat tracheal epithelial cells; conditions: a chemical found in tobacco smoke, previously disclosed; cited from earlier work

For Cc1coc2c1C(=O)C(=O)c1c-2ccc2c1CCCC2(C)C [Tanshinone IIA], the “protection of lungs from lipopolysaccharide-induced injury” value [1] is listed as “protects lungs”, the “effect on regulatory elements involved in oxidative stress and inflammation such as Nrf2” value [2] is listed as “alters regulatory elements” and the “effect on regulatory elements involved in oxidative stress and inflammation such as Nrf2” value [3] is listed as “alters regulatory elements”. For the same compound, the “suppression of the induction of inducible nitric oxide synthase” value [4] was “suppressor of the induction”, the “protection of lungs from lipopolysaccharide-induced injury” value [5] was “protects lungs” and the “induction of heme oxygenase 1” value [6] was “inducer”. The “protection of primary rat tracheal epithelial cells from benzopyrene” value [7] was “protects”.

— patent US20120321729A1, “NUTRITIONAL FORMULA FOR MANAGING CHRONIC OBSTRUCTIVE PULMONARY DISEASE (COPD) AND LUNG HEALTH” (priority 2011, published 2012)
